Values quoted from earlier work, collected in US20080206335A1, “[…] CONTROLLED RELEASE SELECTIVE SEROTONIN […] INHIBITOR FORMULATIONS” (priority 1999, published 2008).

Conditions: steady state after multiple oral doses of 100 mg/day, healthy young volunteers

plasma elimination half-life: 15.6 h
Compound: COCCCC/C(=N\OCCN)c1ccc(C(F)(F)F)cc1.O=C(O)/C=C\C(=O)O [fluvoxamine, 5-methoxy-4′-(trifluoromethyl)valerophenone-(E)-O-(2-aminoethyl) oxime maleate (1:1)]
